Source: PubChem BioAssay AID652143 (Broad Institute, 2013)
Records with an inconclusive call do not appear. Activity calls are given as the source filed them. The rule behind the calls is not given here.

Columns and labels:
Assay in all cases: apoptosis induction across cell line panel, profiling panel, mechanism study for HRAS target identification project, Caspase-Glo 3/7 luminescence, multiple timepoints (AID 652143)
SNB-19 = conditions: caspase 3/7 luminescence, 1/6/24 h
LOX-IMVI = conditions: caspase 3/7 luminescence, 1/6/24 h, caspase 3/7 AC40, timepoint 3
U-251 = conditions: caspase 3/7 luminescence, 1/6/24 h
HT-29 = conditions: caspase 3/7 luminescence, 1/6/24 h, caspase 3/7 AC40, timepoint 2
SR = conditions: caspase 3/7 luminescence, 1/6/24 h

## Cc1onc(C(=O)N2CCN(C(c3ccc(Cl)cc3)c3ccc(OCCOCCOCCNC(=O)OC(C)(C)C)cc3)CC2)c1[N+](=O)[O-] (stereo not given)
SNB-19
  outcome: inactive

## CC(C)(C)OC(=O)NCCOCCOCCOc1ccc(N(C(=O)CCl)C(C(=O)NCCc2ccccc2)c2cccs2)cc1Cl (stereo not given)
SNB-19
  AC40: > 35 µM (inactive)

## CCC(=O)N(c1ccc(OC)c(Cl)c1)C(C(=O)NCCc1ccccc1)c1cccs1 (stereo not given)
LOX-IMVI
  AC40: > 35 µM
SNB-19
  outcome: inactive
U-251
  outcome: inactive

## O=C(NCCOCCOCCOc1ccc(N(C(=O)CCl)C(C(=O)NCCc2ccccc2)c2cccs2)cc1Cl)c1ccc(COC2C#CCCCCC2)cc1 (stereo not given)
HT-29
  AC40: > 35 µM

## COc1ccc(N(C(=O)CCl)C(C(=O)NCCc2ccccc2)c2cccs2)cc1Cl (stereo not given)
SR
  AC40: 22.2 µM
SR; caspase 3/7 AC40, timepoint 2
  AC40: 0.177 µM
SR; caspase 3/7 AC40, timepoint 3
  AC40: 0.551 µM
U-251
  AC40: 14.7 µM
U-251; caspase 3/7 AC40, timepoint 2
  AC40: 1.45 µM
U-251; caspase 3/7 AC40, timepoint 3
  AC40: 0.948 µM

## Cc1onc(C(=O)N2CCN(C(c3ccc(Cl)cc3)c3ccc(Cl)cc3)CC2)c1[N+](=O)[O-]
SNB-19
  outcome: inactive

## CO[C@H]1C[C@@H]2CC[C@@H](C)[C@@](O)(O2)C(=O)C(=O)N2CCCC[C@H]2C(=O)O[C@H]([C@H](C)C[C@@H]2CC[C@@H](O)[C@H](OC)C2)CC(=O)[C@H](C)/C=C(\C)[C@@H](O)[C@@H](OC)C(=O)[C@H](C)C[C@H](C)/C=C/C=C/C=C/1C
SNB-19
  outcome: inactive
SNB-19; caspase 3/7 AC40, timepoint 2
  AC40: 35 µM
